Source: US9888679B2, “Protection of progenitor cells and regulation of their differentiation” (Proteobioactives Pty Ltd, priority 2007, dated 2018)

Assays:
human progenitor cells = assay: DNA synthesis (3H-Thymidine incorporation) in micromass cultures; assay type: cell-based; details: FIG. 5
Procedure: FIG. 5. A bar graph of the concentration dependent effects of Pentosan Polysulfate (PPS) on DNA synthesis by human progenitor cells, as determined by the incorporation of ^3H-Thymidine into macromolecular DNA, after 4 day micromass cultures. *=p<0.05; **=p<0.005 relative to controls.
Ten μl of progenitor cells (7×10^6 cells/ml) were seeded into each well of a 24-well culture plate. After incubation at 37° C. in moist 5% CO2/95% air for 2-3 hours, 900 μl of DMEM-High medium (+10% FBS) and indicated concentrations PPS dissolved in DMEM-High medium were added slowly to the wells. The final PPS concentration were 0, 0.1, 0.5, 1.0, 2.5, 5.0, 10.0, 20.0 μg/ml, respectively. Every PPS concentration was established in triplicate. The cultures were allowed to proceed for 3 days. On day 4, to each well of the 24-well plate was added 640 μl of DMEM-High (+10% FBS), 80 μl of 10×PPS solution and 80 μl of 10 μCi/ml ^3H-Thymidine solution to produce a final ^3H-Thymidine concentration of […] and final PPS concentrations as indicated. The cultures were then incubated in 37° C., 5% CO2 for a further 22 hours, the medium was removed and 200 μl of 1 mg/ml Collagenase solution [Collagenase buffer: 66.7 mM NaCl, 6.7 mM KCl, 4.8 mM CaCl2.2H2O, 10 mM HEPES (pH7.4)] was added to each well. […] The radioactivity of ^3H incorporated into the DNA of proliferating cells was measured by scintillation counting.

Murine ATDC5 cell line = assay: Proteoglycan biosynthesis (35S-GAG) in pellet cultures; assay type: cell-based; details: 2 micrograms/mL; 6 day pellet culture; FIG. 12
From the text: FIG. 12. A bar graph of the concentration dependent effects of Pentosan Polysulfate (PPS), on the biosynthesis of Proteoglycans (PGs) as determined by the incorporation of radioactively labelled sulfate into the sulfated glycosaminoglycans (^35S-GAG) of PGs in 6 day pellet cultures of murine progenitor cells (ADTC-5). *=p<0.05 relative to control.
FIG. 22. A bar graph of the concentration dependent effects of rhNC4 (batch PBA-1202P) expressed by K. lactis, in the absence (maintenance media, MM) and presence of insulin (10 micrograms/mL) (differentiation media, DM), on the biosynthesis of Proteoglycans PGs) in pellet cultures of ATDC5 cells. Data is shown as the % change relative to controls taken to be 100%.
Murine Progenitor cells (cell lines C3H10T1/2 or ATDC5) purchased from RIKEN Cell Bank (Tsukuba, Japan) or human immunoselected Stro-1+ Progenitor cells (Mesoblast Ltd, Melbourne, Australia) were seeded in 2 ml screw-capped sterile centrifuge tubes and the total volume made-up to 1 ml with DMEM-High glucose medium containing 10% FBS. Progenitor cells were then centrifuged at 500 g for 10 min in a swing-out rotor at room temperature. The screw caps were loosened and the tubes placed in an incubator at 37° C., in a 5% CO2/95% air moist atmosphere. The pellets generally formed within 24 hours. Medium was changed daily in the first two days, then once every 2-3 days thereafter. On day 5 the medium was removed and to each tube was added 1 ml with DMEM-High glucose medium containing 10% FBS, 5.0 μCi/ml ^35S-H2SO4 and various concentrations of PPS (0, 0.1, 0.5, 1.0, 2.5, 5.0, 10.0, 20.0, μg/ml) (FIG. 12-15) or rhNC4 (0, 0.1, 0.5, 1.0, 2.0 μg/ml) (FIG. 22). Triplicate cultures were used for all concentration of drugs. The screw caps were loosened and the tubes placed in an incubator at 37° C., in a 5% CO2/95% moist air atmosphere […]. On day 6, 200 μl of stock papain solution [2.5 mg/ml papain, 7.9 mg/ml L-Cystein in papain buffer (0.1 M NaAC, 5 mM EDTA, pH6.0)] was added to each tube. The tubes were tightly capped and incubated at 65° C. for 2 hours. After papain digestion, 4 replicates of 200 μl of papain digested solution were separately transferred to a 96-well micro-titre plate (200 μl/well). The remaining solution was used for the DNA fluorometric assays which were undertaken in triplicate as described above. Biosynthesis of ^35S-GAGs was determined as described for the monolayer cultures and the results expressed as ^35-S-GAGs/μg DNA.
Data is shown as the % of controls taken to be 100%.

For pentosan polysulfate [PPS], the “cell division (3H-Thymidine incorporation into DNA)” value (human progenitor cells; 1-5 micrograms/mL) was “Marked stimulation of cell division”, the “proliferation (3H-Thymidine incorporation into DNA)” value (human progenitor cells; all PPS concentrations (0.1-20 μg/ml)) was “increased proliferation” and the “increase of proteoglycan (PG) synthesis relative to control culture” value (Murine ATDC5 cell line) was 25%.
